Laboratory results from US8835462B2, “Macrocyclic picolinamides as fungicides” (Dow AgroSciences LLC, priority 2012, dated 2014).
Where two headings read alike, the source gives them in different places.

What was measured:
Assay type in all cases: in vivo
[1] = test system: Magnaporthe grisea; Anamorph: Pyricularia oryzae; test: whole plant or invertebrate; conditions: 24 h, read-out: Disease Control PYRIOR 1DP
[2] = test system: Cercospora beticola; test: Leaf spot of sugar beets (CERCBE) fungicidal activity; conditions: 24 h, 1 Day Protectant, sugar beet, read-out: Disease Control CERCBE 1DP
Procedure: Technical grades of materials were dissolved in acetone, which were then mixed with nine volumes of water containing 110 ppm Triton X-100. The fungicide solutions were applied onto wheat seedlings using an automated booth sprayer to run-off. All sprayed plants were allowed to air dry prior to further handling. Wheat plants (variety Yuma) were grown from seed in a greenhouse in 50% mineral soil/50% soil-less Metro mix until the first leaf was fully emerged, with 7-10 seedlings per pot. These plants were inoculated with an aqueous spore suspension of Septoria tritici either prior to or after fungicide treatments. After inoculation the plants were kept in 100% relative humidity (one day in a dark dew chamber followed by two to three days in a lighted dew chamber at 20° C.) to permit spores to germinate and infect the leaf. The plants were then transferred to a greenhouse set at 20° C. for disease to develop. When disease symptoms were fully expressed on the 1st leaves of untreated plants, infection levels were assessed on a scale of 0 to 100 percent disease severity. Percent disease control was calculated using the ratio of disease severity on treated plants relative to untreated plants. Evaluation of Fungicidal Activity: Leaf Spot of Sugar Beets (Cercospora Beticola; Bayer Code CERCBE) Sugar beet plants (variety HH88) were grown in soil-less Metro mix and trimmed regularly to maintain an uniform plant size prior to test. Plants were inoculated with a spore suspension 24 hr after fungicide treatments. Inoculated plants were kept in a dew chamber at 22° C. for 48 hr then incubated in a greenhouse set at 24° C. under a clear plastic hood with bottom ventilation until disease symptoms were fully expressed. Fungicide formulation, application and disease assessment on the sprayed leaves followed the procedures as described in the Example A.

[3] = test system: Blumeria graminis f. sp. hordei; test: Barley powdery mildew (ERYSGH) fungicidal activity; conditions: 24 h, 1 Day Protectant, read-out: Disease Control ERYSGH 1DP
Procedure: Technical grades of materials were dissolved in acetone, which were then mixed with nine volumes of water containing 110 ppm Triton X-100. The fungicide solutions were applied onto wheat seedlings using an automated booth sprayer to run-off. All sprayed plants were allowed to air dry prior to further handling. Wheat plants (variety Yuma) were grown from seed in a greenhouse in 50% mineral soil/50% soil-less Metro mix until the first leaf was fully emerged, with 7-10 seedlings per pot. These plants were inoculated with an aqueous spore suspension of Septoria tritici either prior to or after fungicide treatments. After inoculation the plants were kept in 100% relative humidity (one day in a dark dew chamber followed by two to three days in a lighted dew chamber at 20° C.) to permit spores to germinate and infect the leaf. The plants were then transferred to a greenhouse set at 20° C. for disease to develop. When disease symptoms were fully expressed on the 1st leaves of untreated plants, infection levels were assessed on a scale of 0 to 100 percent disease severity. Percent disease control was calculated using the ratio of disease severity on treated plants relative to untreated plants. Evaluation of Fungicidal Activity: Barley Powdery Mildew (Blumeria Graminis f. sp. Hordei; Synonym: Erysiphe Graminis f. sp. Hordei; Bayer Code […]) Barley seedlings (variety Harrington) were propagated in soil-less Metro mix, with each pot having 8 to 12 plants, and used in the test when first leaf was fully emerged. Test plants were inoculated by dusting with infected stock plants 24 hr after fungicide treatments. After inoculation the plants were kept in a greenhouse set at 20° C. for disease to develop. Fungicide formulation, application and disease assessment on the sprayed leaves followed the procedures as described in the Example A.

[4] = test system: Glomerella lagenarium; Anamorph: Colletotricum lagenarium; test: Cucumber anthracnose (COLLLA) fungicidal activity; conditions: Colletotrichum orbiculare, 24 h, 1 Day Protectant, read-out: Disease Control COLLLA 1DP
Procedure: Technical grades of materials were dissolved in acetone, which were then mixed with nine volumes of water containing 110 ppm Triton X-100. The fungicide solutions were applied onto wheat seedlings using an automated booth sprayer to run-off. All sprayed plants were allowed to air dry prior to further handling. Wheat plants (variety Yuma) were grown from seed in a greenhouse in 50% mineral soil/50% soil-less Metro mix until the first leaf was fully emerged, with 7-10 seedlings per pot. These plants were inoculated with an aqueous spore suspension of Septoria tritici either prior to or after fungicide treatments. After inoculation the plants were kept in 100% relative humidity (one day in a dark dew chamber followed by two to three days in a lighted dew chamber at 20° C.) to permit spores to germinate and infect the leaf. The plants were then transferred to a greenhouse set at 20° C. for disease to develop. When disease symptoms were fully expressed on the 1st leaves of untreated plants, infection levels were assessed on a scale of 0 to 100 percent disease severity. Percent disease control was calculated using the ratio of disease severity on treated plants relative to untreated plants. Evaluation of Fungicidal Activity: Cucumber Anthracnose (Glomerella Lagenarium; Anamorph: Colletotricum Lagenarium; Bayer Code COLLLA) Cucumber seedlings (variety Bush Pickle) were propagated in soil-less Metro mix, with each pot having one plant, and used in the test when 12 to 14 days old. Test plants were inoculated with an aqueous spore suspension of Colletotricum lagenarium 24 hr after fungicide treatments. After inoculation the plants were kept in a dew room at 22° C. with 100% relative humidity for 48 hr to permit spores to germinate and infect the leaf. The plants were then transferred to a growth room set at 22° C. for disease to develop. Fungicide formulation, application and disease assessment on the sprayed leaves followed the procedures as described in the Example A.

[5] = test system: Mycosphaerella graminicola; Anamorph: Septoria tritici; test: Leaf blotch of wheat (SEPTTR) fungicidal activity on wheat seedlings; conditions: Zymoseptoria tritici
How it was run: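 Percent control derives from disease severity on treated versus untreated first leaves, rated 0–100% when symptoms were fully expressed on untreated plants. Yuma seedlings were inoculated with S. tritici spores either before or after spraying to run-off. The spray was acetone solution diluted 1:9 in water with 110 ppm Triton X-100. Infection took place in 100% RH dew chambers, then a 20 °C greenhouse.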

[6] = 24 h, 1 Day Protectant, read-out: Disease Control SEPTTR 1 DP
[7] = 72 h, 3 Day Curative, read-out: Disease Control SEPTTR 3 DC

| SMILES | pest or weed control at 100 ppm [1] [%] | pest or weed control at 100 ppm [2] [%] | pest or weed control at 100 ppm [3] [%] | pest or weed control at 100 ppm [4] [%] | pest or weed control at 100 ppm [5, 6] [%] | pest or weed control at 100 ppm [5, 7] [%] |
| --- | --- | --- | --- | --- | --- | --- |
| COc1ccnc(C(=O)N[C@H]2COC[C@H](Cc3ccccc3)[C@@H](OC3CCCC3)[C@H](C)OC2=O)c1OCOC(=O)C(C)C [Compound 108] | 80 to 100 | 80 to 100 | 80 to 100 | 80 to 100 | 80 to 100 | 0 to 80 |
| CCCCCO[C@@H]1[C@@H](Cc2ccccc2)COC[C@H](NC(=O)c2nccc(OC)c2OCOC(C)=O)C(=O)O[C@H]1C [Compound 26] | 80 to 100 | 80 to 100 | 80 to 100 | 80 to 100 | 80 to 100 | 80 to 100 |
| COc1ccnc(C(=O)N[C@H]2COC[C@H](Cc3ccccc3)[C@@H](OC(=O)C3CC3)[C@H](C)OC2=O)c1OCOC(C)=O [Compound 38] | 80 to 100 | 80 to 100 | 80 to 100 | 80 to 100 | 80 to 100 | 80 to 100 |
| CCCO[C@@H]1[C@@H](Cc2ccccc2)COC[C@H](NC(=O)c2nccc(OC)c2OCOC(C)=O)C(=O)O[C@H]1C [Compound 22] | 80 to 100 | 80 to 100 | 80 to 100 | 80 to 100 | 80 to 100 | 80 to 100 |
| COc1ccnc(C(=O)N[C@H]2COC[C@H](Cc3ccccc3)[C@@H](OC3CCCC3)[C@H](C)OC2=O)c1OC(C)=O [Compound 107] | 80 to 100 | 80 to 100 | 80 to 100 | 80 to 100 | 80 to 100 | 80 to 100 |
| COCCCO[C@@H]1[C@@H](Cc2ccccc2)COC[C@H](NC(=O)c2nccc(OC)c2OCOC(C)=O)C(=O)O[C@H]1C [Compound 16] | 80 to 100 | 80 to 100 | 80 to 100 | 80 to 100 | 80 to 100 | 80 to 100 |
| COc1ccnc(C(=O)N[C@H]2COC[C@H](Cc3ccccc3)[C@@H](OCCCC(F)(F)F)[C@H](C)OC2=O)c1OCOC(C)=O [Compound 23] | 80 to 100 | 80 to 100 | 80 to 100 | 80 to 100 | 80 to 100 | 80 to 100 |
| COc1ccnc(C(=O)N[C@H]2COC[C@H](Cc3ccccc3)[C@@H](OCCCc3ccccc3)[C@H](C)OC2=O)c1OCOC(C)=O [Compound 34] | 80 to 100 | 80 to 100 | 80 to 100 | 80 to 100 | 80 to 100 | 80 to 100 |
| COc1ccnc(C(=O)N[C@H]2COC[C@H](Cc3ccccc3)[C@@H](OC)[C@H](C)OC2=O)c1OCOC(C)=O [Compound 39] | 80 to 100 | 0 to 80 | 0 to 80 | 80 to 100 | 80 to 100 | 80 to 100 |
| COC(=O)/C=C/O[C@@H]1[C@@H](Cc2ccccc2)COC[C@H](NC(=O)c2nccc(OC)c2OCOC(C)=O)C(=O)O[C@H]1C [Compound 36] | 80 to 100 | 0 to 80 | 80 to 100 | 80 to 100 | 80 to 100 | 80 to 100 |
| COc1ccnc(C(=O)N[C@H]2COC[C@H](Cc3ccccc3)[C@@H](OCC(C)C)[C@H](C)OC2=O)c1OCOC(C)=O [Compound 8, (2-((3S,7S,8R,9S)-7-benzyl-8-isobutoxy-9-methyl-2-oxo-1,5-dioxonan-3-ylcarbamoyl)-4-methoxypyridin-3-yloxy)methyl acetate] | 80 to 100 | 80 to 100 | 80 to 100 | 80 to 100 | 80 to 100 | 80 to 100 |
